The test system of test [1] is RMS cell lines including RD and RH30 cells. On the set-up: method as in PMID 10917549, PMID 11742497. As to conditions: after 4–5 days of treatment, range of RMS cell lines including RD and RH30; cited from earlier work.
Another test deals with RH30 and RD cells. In words: IC50 of doxorubicin established in the cell lines tested. It is filed as cell-based. As to conditions: Homo sapiens.

One may read the IC50 as the concentration at which inhibition is half-maximal. For the compound `N.N.[Cl][Pt][Cl]` [Cisplatin, cisplatin], in test [1], the half-maximal inhibitory concentration (IC50) was above 0.5 µM.

In the test with RH30 and RD cells, `COc1cccc2c1C(=O)c1c(O)c3c(c(O)c1C2=O)C[C@@](O)(C(=O)CO)C[C@@H]3O[C@H]1C[C@H](N)[C@H](O)[C@H](C)O1` [Doxorubicin, doxorubicin] gave an IC50 of 0.5 µM.

The values are drawn from publication PMC6349869, “The palladacycle complex AJ-5 induces apoptotic cell death while reducing autophagic flux in rhabdomyosarcoma cells” (Cell Death Discovery, 2019).
